In US9668960B2, “Methods useful in studying or modulating skin or hair pigmentation, plant extracts for use in compositions and cosmetic care method” (L V M H RECHERCHE, priority 2008, dated 2017):

Legend:
[1] = test system: human Myo-X; assay: Knockdown of Myo-X using siRNA in epidermal melanocytes (western blot, immunofluorescence); type: cell-based
Description: (§1) Knockdown of Myo-X using siRNA: A synthetic siRNA targeting human Myo-X (5′-[…]-3′) (SEQ ID No 1) and a non-silencing control, consisting of siRNA that has no known homology with mammalian genes (5′-[…]-3′) (SEQ ID No 2) was obtained from Qiagen, Valencia, Calif. A day before siRNA treatment, 5×10^5 epidermal melanocytes per well were plated onto six-well plates at 50-60% confluency and incubated at 37° C. for 12 h. Cells were then treated for 12 h with a final concentration of 25 nM siRNA by using HiPerFect Transfection Reagent (Qiagen, Valencia, Calif.) following the manufacturer's instructions. Fluorescence microscopy was used to verify that approximately 100% of the cells (using non-silencing control labelled with alexa fluor 488 labels) had taken up the siRNA. At 12 h, the cells from each well were replated into 8-well Lab-Tek® chamber slides. For co-culture studies siRNA treated melanocytes were seeded with normal keratinocytes (passage 2) in 8-well Lab-Tek® chamber slides at a cell density of 2×10^4 cells/well and in a ratio of 1 siRNA treated melanocyte to 10 normal keratinocytes. At 24 h the co-culture were processed for double Immunofluorescence staining with gp100 and cytokeratin or Myo-X to study of the influence of gene knockdown on melanosome transfer, and parallel samples were assayed by immunofluorescence staining and western blot analysis to verify gene knockdown. […]

[2] = test system: melanosome transfer from melanocytes to keratinocytes; assay: Melanosome transfer after knockdown of Myo-X expression in epidermal melanocytes-keratinocytes co-culture; type: cell-based, human; conditions: Myo-X-silenced melanocytes cultured with normal keratinocytes 24 h; vs non-silencing control siRNA
Description: as §1, with “keratinocytes.” for “keratinocytes. At 24 h the co-culture were processed for double Immunofluorescence staining with gp100 and cytokeratin or Myo-X to study of the influence of gene knockdown on melanosome transfer, and parallel samples were assayed by immunofluorescence staining and western blot analysis to verify gene knockdown.”
Using this assay the rate of melanosome transfer from melanocytes to keratinocytes with non-silencing control siRNA conditions was determined (FIG. 8). […]

[3] = test system: tyrosinase; assay: DOPA oxidase detection for tyrosinase activity in FM55 melanoma; type: cell-based, human; conditions: 72 h
Description: The cells were prepared for SDS-PAGE and transblotted onto PVDF membranes. 70 μg of un-reduced protein extract without boiling was pipetted into the appropriate wells of 8% SDS-PAGE gels. […] The L-DOPA reaction was stopped by washing the membrane in distilled water and the membrane was scanned. […] In addition IBMX and NH4Cl (positive melanocytic modulators) and niacinamide (negative modulator) were used as controls. […] Controls: Melanocytic modulators: IBMX (100 μM), NH4Cl (100 μM), and niacinamide (10 μM.). (A) Protein extracts were electroblotted and membranes stained with L-DOPA for the estimation of tyrosinase activity. (B) Densitometric scanning of band intensities and values were expressed as the fold increase compared to unstimulated control levels. Means are ±SEM of 3 independent experiments with *P<0.05, **P<0.01, ***P<0.001.

[4] = test system: Normal human epidermal melanocytes (F52; p5); assay: Melanin assay (melanogenesis) in normal pigmented human melanocytes; type: cell-based; conditions: 72 h
Description: Cells were then washed 3-times with sterile PBS and supplemented with 350 μl of either fresh serum-free RPMI medium (melanoma cells) or starved serum-free and BPE-free melanocyte medium (EM) and incubated at 37° C. and 5% CO2 for 24 h. Cells were then washed with sterile PBS 3-times and incubated with IBMX 1×10^-4 M at 37° C. and 5% CO2 for 12, 24, and 72 h. Cells were then gently washed 3-times with sterile PBS and fixed in ice-cold methanol for 10 minutes at -20° C. Slides were stored at -20° C. until immunocytochemistry was performed. […] The melanin standards were pipetted into a 96 well plate to produce a calibration curve for the assessment of melanin content in the test samples. 400 μl of 1 M NaOH was added to each cell pellet and dissolved on a heat block (100° C.) for 15 minutes. The pellets were vortexed vigorously and the solubilized pellet was pipetted into the same 96-well plate. The optical densities of the sample were read at […] on a DYNEX REVELATION 4.02 program. Melanin content of each test sample was read from the calibration curve. […] In addition IBMX and NH4Cl (positive melanocytic modulators) and niacinamide (negative modulator) were used as controls. Visible change was not particularly evident in normal melanocyte due to their already high basal melanin levels (FIG. 1). By contrast, visible change was evident in melanoma cells basal melanin levels were low (FIG. 2). […] Normal human epidermal melanocytes (Female-52; p5) were treated for 72 h with L-18 (0.001%), L-19 (1%), L-20 (0.5%), L-21 (10 μg/ml), L-22 (1%) and L-23 (0.05 μg/ml). Controls: Melanocytic modulators: IBMX (100 μM), NH4Cl (100 μM), and niacinamide (10 μM). (A) Melanin content was determined spectro-photometrically (475 nm) after sodium hydroxide solubilise (B) Visible change was not particularly evident in these cells due to their already high basal melanin levels. Results were expressed as change in melanin content (pg/cell) compared to unstimulated control levels. Means are ±SEM of 3 independent experiments with *P<0.05, **P<0.01, ***P<0.001. NS-Not Significant

[5] = test system: tyrosinase; assay: DOPA oxidase detection for tyrosinase activity in pigmented normal human melanocytes; type: cell-based; conditions: 72 h
Description: The cells were prepared for SDS-PAGE and transblotted onto PVDF membranes. 70 μg of un-reduced protein extract without boiling was pipetted into the appropriate wells of 8% SDS-PAGE gels. […] The L-DOPA reaction was stopped by washing the membrane in distilled water and the membrane was scanned. […] In addition IBMX and NH4Cl (positive melanocytic modulators) and niacinamide (negative modulator) were used as controls. […] Normal human epidermal melanocytes (Female-52; p5) were treated for 72 h with L-18 (0.001%), L-19 (1%), L-20 (0.5%), L-21 (10 μg/ml), LVMH-22 (1%) and L-23 (0.05 μg/ml). Controls: Melanocytic modulators: IBMX (100 μM), NH4Cl (100 μM), and niacinamide (10 μM). (A) Protein extracts were electroblotted and membranes stained with L-DOPA for the estimation of tyrosinase activity.

[6] = test system: FM55 melanoma cells; assay: Melanin assay (melanogenesis) in moderately-pigmented FM55 melanoma; type: cell-based, human; conditions: 72 h
Description: Cells were then washed 3-times with sterile PBS and supplemented with 350 μl of either fresh serum-free RPMI medium (melanoma cells) or starved serum-free and BPE-free melanocyte medium (EM) and incubated at 37° C. and 5% CO2 for 24 h. Cells were then washed with sterile PBS 3-times and incubated with IBMX 1×10^-4 M at 37° C. and 5% CO2 for 12, 24, and 72 h. Cells were then gently washed 3-times with sterile PBS and fixed in ice-cold methanol for 10 minutes at -20° C. Slides were stored at -20° C. until immunocytochemistry was performed. […] The melanin standards were pipetted into a 96 well plate to produce a calibration curve for the assessment of melanin content in the test samples. 400 μl of 1 M NaOH was added to each cell pellet and dissolved on a heat block (100° C.) for 15 minutes. The pellets were vortexed vigorously and the solubilized pellet was pipetted into the same 96-well plate. The optical densities of the sample were read at […] on a DYNEX REVELATION 4.02 program. Melanin content of each test sample was read from the calibration curve. […] In addition IBMX and NH4Cl (positive melanocytic modulators) and niacinamide (negative modulator) were used as controls. […] Controls: Melanocytic modulators: IBMX (100 μM), NH4Cl (100 μM), and niacinamide (10 μM). (A) Melanin content was determined spectrophotometrically (475 nm) after sodium hydroxide solubilisation. […] (B). Results were expressed as the change in melanin content (pg/cell) compared to unstimulated control levels. Means are ±SEM of 3 independent experiments with *P<0.05, **P<0.01, ***P<0.001.

[7] = L-18 0.001%, L-19 1%, L-20 0.5%, L-21 10 μg/ml, L-22 1%, L-23 0.05 μg/ml, IBMX 100 μM, NH4Cl 100 μM, niacinamide 10 μM, vs basal

| Molecule | expression of Myo-X compared to non-silencing control siRNA ([1]; 25 nM siRNA, 12 h, immunofluorescence) | filopodia in Myo-X-silenced melanocytes ([1]; anti-gp100 double-immunolabelling) | melanosome transfer reduced by [2] [%] | Changes in tyrosinase activity, FM55 % change ([3]; same doses as E5, vs basal) | effect on tyrosinase (dopa oxidase) activity compared with basal levels ([3]; FM55 melanoma cells, doses as E5) | Changes in melanin levels, F52 EM % change [4, 7] | Melanin content, F52 EM (pg/cell) ([4]; same doses as E1, basal 35.63) | Changes in tyrosinase activity, F52 EMc % change [5, 7] | effect on tyrosinase (dopa oxidase) activity compared with basal levels ([5]; normal melanocytes (EM), doses as E5) | Changes in melanin levels, FM55 % change [6, 7] | Melanin content, FM55 (pg/cell) ([6]; same doses as E3, basal 9.92) | effect on melanin content compared with basal levels ([6]; FM55 melanoma cells, doses as E3) |
| --- | --- | --- | --- | --- | --- | --- | --- | --- | --- | --- | --- | --- |
| siRNA targeting human Myo-X: synthetic siRNA targeting human Myo-X (5′-CAGCGGTATAAGAGAAATCAA-3′), obtained from Qiagen (listed as DNA, chemistry not given here; listed as Homo sapiens) | almost completely inhibited | absence of filopodia | 80 | – | – | – | – | – | – | – | – | – |
| Cl.N [NH4Cl] | – | – | – | +408.27% | dramatic increase in dopa oxidase activity of tyrosinase | +166.17% | (94.83) pg/cell | +159.63% | dramatic increase in dopa oxidase activity of tyrosinase | +478.82% | (56.83) pg/cell | visible increases in melanogenesis |
